In patent US20230391796A1, “GLYCOSIDASE INHIBITORS AND USES THEREOF” (UNIVERSIDAD DE SEVILLA (US) -UNIVERSITY OF SEVILLE (US), priority 2020, published 2023):
Where a name gives a salt, the structure may show the parent alone.

Assays:
[1] = target: β-N-acetylglucosaminidase (from bovine kidney); test: Inhibition assay against commercial β-N-acetylglucosaminidase (bovine kidney), p-nitrophenyl N-acetyl-β-D-glucosaminide substrate; assay type: biochemical; conditions: pH 5.5, 37° C.; average of three determinations ± s.e.m.; NI = no inhibition detected at 200 μM; read-out: Bovine kidney Hex
Description: Inhibition Assays Against Commercial β-N-acetylglucosaminidases
Inhibition constant (Ki) values were determined by spectrophotometrically measuring the residual hydrolytic activities of the glycosidases against p-nitrophenyl N-acetyl-β-D-glucosaminide. […] Each assay was performed in phosphate-citrate buffer and the reactions were initiated by addition of the enzyme to a solution of the substrate in the absence or presence of various inhibitor concentrations. The mixture was incubated for 10-30 min at 37° C. and the reaction was quenched by addition of 1 M Na2CO3. Reaction times were appropriate to obtain 10-20% conversion of the substrate in order to achieve linear rates. The absorbance of the resulting mixture was determined at 405 nm. Approximate values of Ki were determined using a fixed concentration of substrate (around the Km value for the different glycosidases) and various inhibitor concentrations. Full Ki determinations and enzyme inhibition mode were determined from the slope of Lineweaver-Burk plots and double reciprocal analysis using a Microsoft Office Excel 2007 program.

Total hHex = test: Inhibition of total hHex; assay type: biochemical, human; conditions: IC50 for total hHexA; NI = no inhibition detected at 200 μM
[2] = target: T1, Recombinant Human Hexosaminidase B (HexB) (Homo sapiens, UniProt P07686); test: Inhibition assay against rhHexB, 4-methylumbelliferone N-acetyl-β-D-galactosaminide fluorescence; assay type: biochemical; conditions: 5 nM HexB, 150 μM substrate, pH 5.5; NI = no inhibition detected at 200 μM; read-out: hHexB
T1 construct: purchased R&D Systems 8907-GH-020
T1 sequence (P07686 122-556): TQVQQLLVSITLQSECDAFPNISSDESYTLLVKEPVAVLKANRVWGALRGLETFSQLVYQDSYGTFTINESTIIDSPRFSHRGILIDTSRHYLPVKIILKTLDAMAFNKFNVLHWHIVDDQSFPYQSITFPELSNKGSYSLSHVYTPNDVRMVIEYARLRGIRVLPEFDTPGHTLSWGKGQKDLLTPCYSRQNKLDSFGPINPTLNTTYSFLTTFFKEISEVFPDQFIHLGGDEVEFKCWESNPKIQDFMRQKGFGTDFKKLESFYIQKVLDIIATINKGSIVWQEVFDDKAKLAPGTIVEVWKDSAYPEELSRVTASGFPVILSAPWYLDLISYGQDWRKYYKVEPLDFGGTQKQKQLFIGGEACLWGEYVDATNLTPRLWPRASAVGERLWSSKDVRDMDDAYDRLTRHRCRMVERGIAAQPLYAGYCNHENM
Description: Inhibition Assays Against rhHexB
Inhibition constant (Ki) values for compounds against Recombinant Human Hexosaminidase B (HexB) enzyme, purchased from R&D Systems (cat# 8907-GH-020) are determined by measuring the change in fluorescent signal corresponding to the rate of hydrolytic activity against the commercially available artificial substrate, 4-Methylumbelliferone N-acetyl-β-D-galactosaminide. HexB activity assays were performed in a buffer 100 mM MES at pH 5.5 and 5 nM [HexB]. Inhibition assays were in the presence or absence of various concentrations of inhibitors and at a fixed substrate concentration of 150 μM and 1% DMSO. First, inhibitor was serially diluted to the desired range of concentrations in 2% DMSO buffer. Next, 50 μL, of inhibitor solutions at various concentrations in 2% DMSO Buffer was added to 50 μL of 20 nM enzyme and allowed to incubate at 25° C. for 5 minutes. 100 μL, of 300 μM and 1% DMSO substrate was then added and reaction mixture was immediately mixed and aliquoted in 45 μL triplicates to a CORNING 384 well black plate. Fluorescence signal was measured continuously for 20 minutes at 25° C. in a BioTek Neo 2 Plate reader set at excitation and emission wavelengths of 355 and 450 nm, respectively. Max reaction rates for all inhibitor concentrations were calculated within Gen5 BioTek reader software. % Activity was subsequently calculated for each inhibitor concentration against the max reaction rate of uninhibited HexB. GraphPad Prism 2016 was used to approximate the Morrison Ki values for each inhibitor.

CCC(=O)N[C@H]1CN2/C(=N/Cc3ccccc3)SC[C@@H]2[C@@H](O)[C@@H]1O [Compound 13, 2-Propanamido-5-N,6-S-(N′-benzyliminomethylidene)-1,2-dideoxy-6-thionojirimycin Hydrochloride]
> 200 µM: Ki [1] | IC50 (Total hHex) | Ki [2]

CCC(=O)N[C@H]1CN2/C(=N/Cc3cccc4ccccc34)SC[C@@H]2[C@@H](O)[C@@H]1O [Compound 14, 2-Propionamido-5-N,6-S-(N′-1-naphthylmethyliminomethylidene)-1,2-dideoxy-6-thionojirimycin hydrochloride]
> 200 µM: Ki [1] | IC50 (Total hHex) | Ki [2]

CCC(=O)N[C@H]1CN2/C(=N/Cc3ccc4[nH]ccc4c3)SC[C@@H]2[C@@H](O)[C@@H]1O [Compound 15, 2-Propionamido-5-N,6-S-(N′-5-indolylmethyliminomethylidene)-1,2-dideoxy-6-thionojirimycin hydrochloride]
> 200 µM: Ki [1] | IC50 (Total hHex) | Ki [2]

CC(C)C(=O)N[C@H]1CN2/C(=N/Cc3ccccc3)SC[C@@H]2[C@@H](O)[C@@H]1O [Compound 16, 2-Isobutanamido-5-N,6-S-(N′-benzyliminomethylidene)-1,2-dideoxy-6-thionojirimycin Hydrochloride]
> 200 µM: Ki [1] | IC50 (Total hHex) | Ki [2]

CCCC(=O)N[C@H]1CN2/C(=N/Cc3ccccc3)SC[C@@H]2[C@@H](O)[C@@H]1O [Compound 17, 2-Butanamido-5-N,6-S-(N′-benzyliminomethylidene)-1,2-dideoxy-6-thionojirimycin]
> 200 µM: Ki [1] | IC50 (Total hHex) | Ki [2]

CCNC(=S)N[C@H]1CN2/C(=N/Cc3ccccc3)SC[C@@H]2[C@@H](O)[C@@H]1O [Compound 18, 2-Ethylthioureido-5-N,6-S-(N′-benzyliminomethylidene)-1,2-dideoxy-6-thionojirimycin]
> 200 µM: Ki [1] | IC50 (Total hHex) | Ki [2]

CCCNC(=S)N[C@H]1CN2/C(=N/Cc3ccccc3)SC[C@@H]2[C@@H](O)[C@@H]1O [Compound 19, 2-Propylthioureido-5-N,6-S-(N′-benzyliminomethylidene)-1,2-dideoxy-6-thionojirimycin]
> 200 µM: Ki [1] | IC50 (Total hHex) | Ki [2]
